Measured values from patent US12681015B2, “Methods for predicting patient response to DMARDs” (Queen Mary University of London, priority 2019, dated 2026).

How the values were obtained:
[1] = system: inflammatory arthritis in mice; experiment: Inflammatory arthritis in mice treated with MTX plus L002 or MTX plus SB202190; assay type: in vivo; settings: for anti-arthritic actions of MTX: MTX 25 mg/kg plus inhibitor 20 mg/kg i.p. days 3, 5 and 7; for weight loss, a marker of disease activity / joint inflammation / joint concentrations of LTB4 / joint damage / ability of MTX to regulate neutrophil trafficking to the inflamed joint: MTX plus inhibitor 20 mg/kg; for joint inflammation: 26-point clinical score; for joint concentrations of LTB4: day 8, LC-MS/MS; for joint damage: knee histology, day 8; for ability of MTX to regulate neutrophil trafficking to the inflamed joint: paws, day 8, flow cytometry
From the text: (§1) Plasma was collected by centrifugation and SPM were identified and quantified using LC-MS/MS based lipid mediator profiling (see methods for details). (A) sPLS-DA score plot of identified lipid mediator concentrations (B) Contribution for the top 10 differentially regulated mediators in principle component 1. Results are representative of n=6 volunteers per group with experiments conducted on two distinct occasions. (C-G) Inflammatory arthritis was initiated in mice by the administration of arthritogenic serum on days 0 and 2. […] Disease severity was assessed by measuring (C) disease activity using a 26-point clinical score, (D) joint histology using hematoxylin and eosin staining of knee sections collected 8 days post disease initiation, original magnification=×4 and (E) body weight. (F,G) Eight days post disease initiation joints were collected, (F) leukocytes were liberated from the paws and the number of neutrophils infiltrated into the paw was determined using flow cytometry and fluorescently labelled antibodies. (G) Lipid mediators were extracted and the concentrations of LTB4 were determined using liquid chromatography tandem-mass spectrometry. C, E, F are mean±SEM and G are percentage of vehicle of n=4 mice per group and experiments were conducted on two distinct occasions. Results for D are representative of n=8 mice per group. * p<0.05 vs Vehicle group for C and E using two-way ANOVA, for F one-way ANOVA, for G using one-sample t test. F=femur; m=meniscus; PF=pannus formation; T=tibia.
Plasma was obtained from peripheral blood of healthy volunteers, patients and mouse following centrifugation at 1500×g for 10 min at room temperature. Paws were collected and immediately transferred to liquid nitrogen prior to homogenization in 1 ml ice cold MeOH and homogenized using a glass dounce. All samples for LC-MS/MS-based profiling were extracted using solid-phase extraction columns as in Walker, M. E., Souza, P. R., Colas, R. A. & Dalli, J. “13-Series resolvins mediate the leukocyte-platelet actions of atorvastatin and pravastatin in inflammatory arthritis.” FASEB J 31, 3636-3648 (2017), the contents of which are incorporated herein by reference. Prior to sample extraction, deuterated internal standards, representing each region in the chromatographic analysis (500 pg each) were added to facilitate quantification. Samples were kept at −20° C. for a minimum of 45 min to allow protein precipitation. Supernatants were subjected to solid phase extraction, methyl formate fraction collected, brought to dryness and suspended in phase (methanol/water, 1:1, vol/vol) for injection on a Shimadzu LC-20AD HPLC and a Shimadzu SIL-20AC autoinjector, paired with a QTrap 5500 or QTrap 6500 plus (Sciex). An Agilent Poroshell 120 EC-C18 column (100 mm×4.6 mm×2.7 μm) was kept at 50° C. and mediators eluted using a mobile phase consisting of methanol/water/acetic acid of 20:80:0.01 (vol/vol/vol) that was ramped to 50:50:0.01 (vol/vol/vol) over 0.5 min and then to 80:20:0.01 (vol/vol/vol) from 2 min to 11 min, maintained till 14.5 min and then rapidly ramped to 98:2:0.01 (vol/vol/vol) for the next 0.1 min. This was subsequently maintained at 98:2:0.01 (vol/vol/vol) for 5.4 min, and the flow rate was maintained at 0.5 ml/min. QTrap 5500 or QTrap 6500 plus were operated using a multiple reaction monitoring method as in Walker, M. E., Souza, P. R., Colas, R. A. & Dalli, J. “13-Series resolvins mediate the leukocyte-platelet actions of atorvastatin and pravastatin in inflammatory arthritis.” FASEB J 31, 3636-3648 (2017), the contents of which are incorporated herein by reference. […]

[2] = system: MTX-induced upregulation of SPM in human peripheral blood; experiment: Human whole blood incubated with L002 or SB202190, then MTX; plasma SPM by LC-MS/MS; assay type: cell-based; settings: L002 2 μM or SB202190 5 μM, then MTX 100 nM, 37° C., 45 min
From the text: as §1
Plasma was obtained from peripheral blood of healthy volunteers, patients and mouse following centrifugation at 1500×g for 10 min at room temperature. Paws were collected and immediately transferred to liquid nitrogen prior to homogenization in 1 ml ice cold MeOH and homogenized using a glass dounce. All samples for LC-MS/MS-based profiling were extracted using solid-phase extraction columns as in Walker, M. E., Souza, P. R., Colas, R. A. & Dalli, J. “13-Series resolvins mediate the leukocyte-platelet actions of atorvastatin and pravastatin in inflammatory arthritis.” FASEB J 31, 3636-3648 (2017), the contents of which are incorporated herein by reference. Prior to sample extraction, deuterated internal standards, representing each region in the chromatographic analysis (500 pg each) were added to facilitate quantification. Samples were kept at −20° C. for a minimum of 45 min to allow protein precipitation. Supernatants were subjected to solid phase extraction, methyl formate fraction collected, brought to dryness and suspended in phase (methanol/water, 1:1, vol/vol) for injection on a Shimadzu LC-20AD HPLC and a Shimadzu SIL-20AC autoinjector, paired with a QTrap 5500 or QTrap 6500 plus (Sciex). […]

[3] = known side effect; cited from earlier work

SMILES | anti-arthritic actions of MTX [1] | weight loss, a marker of disease activity [1] | joint inflammation [1] | joint concentrations of LTB4 [1] | joint damage [1] | ability of MTX to regulate neutrophil trafficking to the inflamed joint [1] | MTX-induced upregulation of SPM [2] | concentrations of several mediators including PD1, MaR2n-3 DPA and RvD1 [2] | High blood pressure, share of people [3]
COc1ccc(S(=O)(=O)ON=C2C=C(C)C(=O)C(C)=C2)cc1 [L002] | reversed | increase | increase | increase | increase | reversed | blocking | decreasing | –
Cc1oncc1C(=O)Nc1ccc(C(F)(F)F)cc1 [Leflunomide] | – | – | – | – | – | – | – | – | up to 10% of people
Oc1ccc(-c2nc(-c3ccncc3)c(-c3ccc(F)cc3)[nH]2)cc1 [SB202190] | reversed | increase | increase | increase | increase | reversed | blocking | decreasing | –
